According to the supplement of paper PMC11451515:

Tested on: P12-Ichikawa
Test: cell viability relative to DMSO control; higher = less cytotoxic
Conditions: 48 h
How it was run: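 NOMO1 or SEM cells were plated at 500 cells/well and P12-Ichikawa cells at 1000 cells/well in 1536-well plates (5 μl), after each leukemia line had been adapted for at least four passages in each medium. Pin dosing delivered library compounds in DMSO at 11 threefold concentrations, 47 μM to 0.79 nM. CellTiter-Glo One luminescence was read after 48 h at 37°C. Viability is reported as a per-plate percentage of DMSO wells, with cell-free wells as background.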

[1] = HPLM + 10% dialyzed FBS, 0.000781 µM
[2] = HPLM + 10% dialyzed FBS, 0.00234 µM
[3] = HPLM + 10% dialyzed FBS, 0.00702 µM
[4] = HPLM + 10% dialyzed FBS, 0.0211 µM
[5] = HPLM + 10% dialyzed FBS, 0.0632 µM
[6] = HPLM + 10% dialyzed FBS, 0.19 µM
[7] = HPLM + 10% dialyzed FBS, 0.569 µM
[8] = HPLM + 10% dialyzed FBS, 1.71 µM
[9] = HPLM + 10% dialyzed FBS, 5.12 µM
[10] = HPLM + 10% dialyzed FBS, 15.4 µM
[11] = HPLM + 10% dialyzed FBS, 46.1 µM
[12] = RPMI 5 mM glucose + 10% FBS, 0.000781 µM
[13] = RPMI 5 mM glucose + 10% FBS, 0.00234 µM
[14] = RPMI 5 mM glucose + 10% FBS, 0.00702 µM
[15] = RPMI 5 mM glucose + 10% FBS, 0.0211 µM
[16] = RPMI 5 mM glucose + 10% FBS, 0.0632 µM
[17] = RPMI 5 mM glucose + 10% FBS, 0.19 µM
[18] = RPMI 5 mM glucose + 10% FBS, 0.569 µM
[19] = RPMI 5 mM glucose + 10% FBS, 1.71 µM
[20] = RPMI 5 mM glucose + 10% FBS, 5.12 µM
[21] = RPMI 5 mM glucose + 10% FBS, 15.4 µM
[22] = RPMI 5 mM glucose + 10% FBS, 46.1 µM
[23] = RPMI 5 mM glucose + 10% dialyzed FBS, 0.000781 µM
[24] = RPMI 5 mM glucose + 10% dialyzed FBS, 0.00234 µM
[25] = RPMI 5 mM glucose + 10% dialyzed FBS, 0.00702 µM
[26] = RPMI 5 mM glucose + 10% dialyzed FBS, 0.0211 µM
[27] = RPMI 5 mM glucose + 10% dialyzed FBS, 0.0632 µM
[28] = RPMI 5 mM glucose + 10% dialyzed FBS, 0.19 µM
[29] = RPMI 5 mM glucose + 10% dialyzed FBS, 0.569 µM
[30] = RPMI 5 mM glucose + 10% dialyzed FBS, 1.71 µM
[31] = RPMI 5 mM glucose + 10% dialyzed FBS, 5.12 µM
[32] = RPMI 5 mM glucose + 10% dialyzed FBS, 15.4 µM
[33] = RPMI 5 mM glucose + 10% dialyzed FBS, 46.1 µM

Compound | cell viability [1] | cell viability [2] | cell viability [3] | cell viability [4] | cell viability [5] | cell viability [6] | cell viability [7] | cell viability [8] | cell viability [9] | cell viability [10] | cell viability [11] | cell viability [12] | cell viability [13] | cell viability [14] | cell viability [15] | cell viability [16] | cell viability [17] | cell viability [18] | cell viability [19] | cell viability [20] | cell viability [21] | cell viability [22] | cell viability [23] | cell viability [24] | cell viability [25] | cell viability [26] | cell viability [27] | cell viability [28] | cell viability [29] | cell viability [30] | cell viability [31] | cell viability [32] | cell viability [33]
O=C(O)c1nn(Cc2ccc(Cl)cc2Cl)c2ccccc12 | 94.1% | 93% | 97.1% | 92.5% | 89.5% | 84% | 81.1% | 88.9% | 89.6% | 79.2% | 87.1% | 87.5% | 86.6% | 95.3% | 85.2% | 86.1% | 85.7% | 84.3% | 82.2% | 89.5% | 85.2% | 84.2% | 87.6% | 79.1% | 89.1% | 86.4% | 81.3% | 74% | 73.9% | 74.4% | 81.5% | 71.7% | 76.9%
O=C(O)CCCc1ccc(N(CCCl)CCCl)cc1 | 117% | 116% | 118% | 122% | 125% | 122% | 125% | 126% | 123% | 123% | 20.4% | – | – | – | – | – | – | – | – | – | – | – | – | – | – | – | – | – | – | – | – | – | –
COC(=O)Nc1nc2cc(Sc3ccccc3)ccc2[nH]1 | 124% | 115% | 119% | 108% | 112% | 114% | 111% | 96% | 19.5% | 25.2% | 31.8% | 112% | 113% | 118% | 111% | 113% | 124% | 115% | 97.6% | 16.8% | 29.3% | 28.7% | 101% | 109% | 120% | 114% | 113% | 111% | 102% | 90% | 24.5% | 30.4% | 35.5%
CNC(=O)c1cc(COc2nnc(Nc3ccc(Cl)cc3)c3ccoc23)ccn1 | 119% | 109% | 110% | 105% | 106% | 113% | 105% | 103% | 106% | 101% | 89.4% | 117% | 116% | 118% | 115% | 116% | 113% | 112% | 110% | 105% | 107% | 102% | 114% | 130% | 108% | 114% | 104% | 115% | 116% | 100% | 111% | 101% | 97.4%
Cc1cccc(Nc2nc(N[C@@H]3CCCC[C@@H]3N)ncc2C(N)=O)c1 | 110% | 113% | 121% | 117% | 119% | 116% | 114% | 30.9% | 11% | 10.8% | 14.5% | 120% | 107% | 110% | 102% | 117% | 97.9% | 107% | 103% | 35.1% | 13.7% | 14.7% | 103% | 108% | 123% | 123% | 121% | 127% | 125% | 80.5% | 24.3% | 23.3% | 27.5%
Cc1n[nH]c(C)c1Cc1sc2c(c1C(=O)N1C[C@H](O)CO1)c(=O)n(C)c(=O)n2CC(C)C | 116% | 117% | 119% | 121% | 109% | 98.8% | 93.4% | 92.6% | 94.3% | 91.4% | 83.4% | 117% | 118% | 131% | 120% | 109% | 107% | 95.6% | 95.8% | 84.3% | 89.9% | 83.8% | 113% | 118% | 114% | 114% | 107% | 98.2% | 91.6% | 92% | 94% | 88.5% | 83.7%
COc1cc2nc(N3CCN(C(=O)c4ccco4)CC3)nc(N)c2cc1OC | 88.4% | 91.4% | 95% | 102% | 99% | 93.2% | 110% | 84.7% | 97.1% | 55.1% | 4.81% | 84.1% | 88.8% | 97.8% | 91.6% | 98.2% | 103% | 87% | 95% | 91.2% | 98.9% | 5.43% | 77.1% | 74.4% | 91% | 80.1% | 90.7% | 85.3% | 93.5% | 89.1% | 90.1% | 95.1% | 5.58%
COC1=CC2=C(C=C1CC3=C(F)C(=CC=C3)Cl)C(=O)\C(=C/N2[C@H](CO)C(C)C)C(O)=O | 125% | 123% | 122% | 107% | 121% | 119% | 114% | 115% | 110% | 95.9% | 13.4% | – | – | – | – | – | – | – | – | – | – | – | 116% | 125% | 124% | 117% | 125% | 121% | 119% | 112% | 103% | 67.3% | 10%
